The text below walks through data of article PMC11496352, “Synthesis of Novel Plant-Derived Encapsulated Radiolabeled Compounds for the Diagnosis of Parkinson’s Disease and the Evaluation of Biological Effects with In Vitro/In Vivo Methods” (Molecular Neurobiology, 2024).

The structures appear in SMILES notation. A value given as a limit tells only on which side of the number the result lay.

In one data set the test system is SH-SY5Y cell line. Briefly: Cytotoxicity study (WST) on SH-SY5Y cells. Format: cell-based. The following applies: Homo sapiens. Here is the method:
(§1) SY-SH5Y and PC-12 cell lines were used in in vitro cell culture studies. SH-SY5Y cells in a medium consisting of minimum Essential Medium (Eagle) and 10% fetal bovine serum (FBS); PC-12 cells were produced in a medium consisting of RPMI 1640 medium, 10% horse serum, and 5% fetal bovine serum (FBS). All cells were incubated in 5% CO2 and 37 °C. Fresh medium was added by changing the medium every 2 days. After the cells were produced enough to cover 80% of the flasks, they were separated from the flask by means of a 0.25% (W / V) trypsin–EDTA solution and plated in 24-well plates for incorporation studies and 96-well plates for cytotoxicity studies and study groups were formed.
(§2) Cells were prepared from SY-SH5Y and PC-12 cell suspensions at 5 × 10^4 cells / mL in each well of 96-well plates. One hundred microliters of cell suspension was added to each well-formed and the solution containing MA prepared with sterile SF at five different (10^0, 10^–1, 10^–2, 10^–3, 10^–4 nM) concentrations was added to the wells outside the control. As a negative control, media without cells and reagents were used. In the study, each parameter was studied in triplicate. The plate containing the cells was incubated at 37 °C in 5% CO2. SH-SY5Y cells were incubated at 24, 48, and 72 h of incubation by adding 10 μl of WST solution to each well and incubating for another 4 h. On other hand, MTT solution was added to PC-12 cells and incubated for 4 more hours. At the end of the incubation, the MTT solution on the cells was removed and 200 µL DMSO was added to the PC-12 cells. All cells were read using a spectrophotometer, at 450 nm wavelength and 690 nm reference range, for the absorbance value of each well. Negative control was accepted as zero absorbance and % viability values were calculated with the formula [(measured absorbance value/control value) × 100] and the same procedures were repeated for the MA-L-DOPA compound.

The test system of another data set is PC-12 cell line. Briefly: Cytotoxicity study (MTT) on PC-12 cells. It is filed as cell-based. The following applies: Rattus norvegicus. The method, then:
as §1, §2

Details of data set [1]: method as in PMID 27992940. The following applies: rats; cited from earlier work.

`CC1CCC2(C(=O)OC3OC(COC4OC(CO)C(OC5OC(C)C(O)C(OC(=O)C(N)Cc6ccc(O)c(O)c6)C5O)C(O)C4O)C(O)C(O)C3O)CCC3(C)C(=CCC4C5(C)CC(O)C(O)C(C)(CO)C5C(O)CC43C)C2C1C` [MA-L-DOPA]: the IC50 in the data set on SH-SY5Y cell line (24 hour) came out at 12.9 ± 2.09 µM; in the data set on SH-SY5Y cell line (48 hour), 10.1 ± 2.08 µM; in the data set with SH-SY5Y cell line (72 hour) it was 7.16 ± 1.11 µM; in the data set on PC-12 cell line (PC-12, 24 hour), 12.5 ± 2.21 µM; in the data set with PC-12 cell line (PC-12, 48 hour), 10 ± 2.06 µM; in the data set on PC-12 cell line (PC-12, 72 hour), 6.93 ± 1.09 µM.
For the molecule `C[C@H]1[C@H](C)CC[C@]2(C(=O)O[C@@H]3O[C@H](CO[C@@H]4O[C@H](CO)[C@@H](O[C@@H]5O[C@@H](C)[C@H](O)[C@@H](O)[C@H]5O)[C@H](O)[C@H]4O)[C@@H](O)[C@H](O)[C@H]3O)CC[C@]3(C)C(=CC[C@@H]4[C@@]5(C)C[C@@H](O)[C@H](O)[C@@](C)(CO)[C@@H]5[C@H](O)C[C@]43C)[C@H]12` [MA, Madecassoside], the IC50 in the data set on SH-SY5Y cell line (24 hour) was found to be 12.9 ± 2.14 µM; in the data set on SH-SY5Y cell line (48 hour), 12.8 ± 2.24 µM; with SH-SY5Y cell line (72 hour), 7.45 ± 1.14 µM; in the data set with PC-12 cell line (PC-12, 24 hour), 12.8 ± 2.21 µM; in the data set with PC-12 cell line (PC-12, 48 hour), 12.6 ± 2.41 µM; in the data set on PC-12 cell line (PC-12, 72 hour), 8.54 ± 1.37 µM. Besides, the “time within which uptake in the brain tissue occurs” value in data set [1] is at most 1 h.

For orientation: IC50 means the concentration at which inhibition is half-maximal.
